Measured values as given in EPA's ToxValDB 9.5 (doi:10.2903/j.efsa.2013.3298).
≈ marks a conversion by molar mass, not a printed value.

What was measured:
[1] = tested on: Aphidius rhopalosiphi; assay: LR50; higher = less toxic; details: acute; duration: 14 days; mortality
[2] = tested on: Typhlodromus pyri; assay: LR50; higher = less toxic; details: chronic/long-term; duration: 14 days; mortality
[3] = tested on: Canidae; details: oral, M/F, Dog Other, hematological
[4] = tested on: Daphnia magna; details: chronic/long-term; duration: 21 days; reproduction
[5] = tested on: Rattus norvegicus
[6] = tested on: Colinus virginianus; details: for LD50: acute, oral, mortality
[7] = tested on: Tagia sp.
[8] = tested on: Cyprinodon variegatus; details: acute; duration: 96 hours; mortality
[9] = tested on: Anas platyrhynchos
[10] = tested on: Pimephales promelas; details: chronic/long-term; duration: 35 days; body weight
[11] = tested on: Bibionidae
[12] = tested on: Apis mellifera; details: acute; duration: 48 hours; oral; unspecified; mortality

`Cc1cc(C(F)(C(F)(F)F)C(F)(F)F)ccc1NC(=O)c1cccc(I)c1C(=O)NC(C)(C)CS(C)(=O)=O` [Flubendiamide] gave an LR50 [1] of over 675 g/ha, an LR50 [2] of over 675 g/ha and an NOAEL ([3]; chronic, duration: 1 years) of 2.21 mg/kg-day. It also gave an NOAEL ([3]; subchronic, duration: 90 days) of 2.6 mg/kg-day, an NOEC [4] of 0.4 µg/L and an LD50 ([5]; acute, oral, M/F, mortality) of over 2000 mg/kg. For the same molecule, the NOAEL ([5]; chronic, M, hematological) was 1.7 mg/kg-day, the NOAEL ([5]; developmental, development) was 10 mg/kg-day and the NOAEL ([5]; reproduction developmental, F, reproduction) was 3.68 mg/kg-day. It also gave an LD50 ([6]; diet) of over 1080 mg/kg-day, an LD50 [6] of over 2000 mg/kg and an NOEL ([6]; reproduction developmental, reproduction) of 10.2 mg/kg-day. It also gave an LC50 ([7]; acute, duration: 14 days, mortality) of over 1000 mg/kg, an NOEC ([7]; chronic/long-term, duration: 56 days, reproduction) of 1000 mg/kg and an LC50 [8] of over 29.8 µg/L. For the same molecule, the NOEL ([9]; reproductive, reproduction) was 26 mg/kg-day, the LD50 ([9]; short-term, oral, feed, mortality) was over 1020 mg/kg-day and the NOEC [10] was 60.2 µg/L. For the same molecule, the LC50 ([11]; acute, duration: 48 hours, mortality) was 1880 µg/L (≈ 2.75 µM), the NOEC ([11]; chronic/long-term, duration: 28 days, development) was 35 µg/L and the LD50 [12] was over 200 µg/piece.
